Several values for one entry are separate records, joined by “and”; a condition that tells them apart may be missing. Equal values may be shown once. Inconclusive results and toxic doses are left out. Rule for the calls: active = survival T/C of 150% or more; inactive = T/C below 125% in these data.
Test system: CD2F1 mice, L1210 leukemia ip, survival T/C
Assay: NCI In Vivo Anticancer Drug Screen. Data for tumor model L1210 Leukemia (intraperitoneal) in CD2F1 (CDF1) mice
Conditions: higher = longer survival
In short: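 Activity against a transplanted murine tumor was judged by comparing the compound group with a vehicle group. The outcome in the treated animals was divided by that in the controls.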

[1] = endpoint: mean survival time, dose: 100.0 mg/kg/injection, schedule: Q01DX009 (ip), vehicle: other
[2] = endpoint: mean survival time, dose: 200.0 mg/kg/injection, schedule: Q01DX009 (ip), vehicle: other
[3] = endpoint: mean survival time, dose: 100.0 mg/kg/injection, schedule: Q04DX003 (ip), vehicle: saline
[4] = endpoint: mean survival time, dose: 200.0 mg/kg/injection, schedule: Q01DX009 (ip), vehicle: saline
[5] = endpoint: mean survival time, dose: 200.0 mg/kg/injection, schedule: Q04DX003 (ip), vehicle: saline
[6] = endpoint: mean survival time, dose: 400.0 mg/kg/injection, schedule: Q04DX003 (ip), vehicle: saline
[7] = endpoint: mean survival time, dose: 50.0 mg/kg/injection, schedule: Q01DX009 (ip), vehicle: saline with Tween-80
[8] = endpoint: mean survival time, dose: 100.0 mg/kg/injection, schedule: Q01DX009 (ip), vehicle: saline with Tween-80
[9] = endpoint: mean survival time, dose: 50.0 mg/kg/injection, schedule: Q01DX009 (ip), vehicle: saline

Measured: T/C

COc1cc(/C=C2/CCCCC2=O)ccc1O
inactive: [1] 104 % of control | [2] 98 % of control | endpoint: mean survival time, dose: 400.0 mg/kg/injection, schedule: Q01DX009 (ip), vehicle: other 98 % of control

Cc1ccc(S(=O)(=O)/C=C(/I)C(=O)c2ccccc2)cc1
inactive: endpoint: mean survival time, dose: 100.0 mg/kg/injection, schedule: Q01DX009 (ip), vehicle: saline 90 % of control | [3] 100 % of control | [4] 93 % of control | [5] 96 % of control | endpoint: mean survival time, dose: 400.0 mg/kg/injection, schedule: Q01DX009 (ip), vehicle: saline 88 % of control | [6] 108 % of control

CC(C)=C(C)c1ccccc1
inactive: [7] 103 % of control | [8] 106 % of control | endpoint: mean survival time, dose: 200.0 mg/kg/injection, schedule: Q01DX009 (ip), vehicle: saline with Tween-80 103 % of control

CCN(CC)/C(N)=N\c1nc(C)c2cc(Cl)ccc2n1
inactive: endpoint: mean survival time, dose: 100.0 mg/kg/injection, schedule: Q01DX001 (ip), vehicle: saline 103 % of control

O=c1n(-c2ccccc2)c(=O)n2n1CC(c1ccccc1)=N2
inactive: endpoint: mean survival time, dose: 12.5 mg/kg/injection, schedule: Q01DX009 (ip), vehicle: other 97 % of control | endpoint: mean survival time, dose: 25.0 mg/kg/injection, schedule: Q01DX009 (ip), vehicle: other 100 % of control | endpoint: mean survival time, dose: 50.0 mg/kg/injection, schedule: Q01DX009 (ip), vehicle: other 97 % of control | [1] 103 % of control | [2] 96 % of control

NC1=CC(=O)c2ccccc2C1=O
inactive: [7] 96 % of control | [8] 100 % of control

NC1(C(=O)O)CCCC1
inactive: [9] 98 % of control and 110 % of control | endpoint: mean survival time, dose: 50.0 mg/kg/injection, schedule: Q03DX003 (ip), vehicle: saline 110 % of control | endpoint: mean survival time, dose: 50.0 mg/kg/injection, schedule: Q04DX003 (ip), vehicle: saline 96 % of control | endpoint: mean survival time, dose: 100.0 mg/kg/injection, schedule: Q03DX003 (ip), vehicle: saline 98 % of control | [4] 92 % of control and 110 % of control

O=C(CC(=O)C(F)(F)C(F)(F)C(F)(F)F)C(F)(F)F.O=C(CC(=O)C(F)(F)C(F)(F)C(F)(F)F)C(F)(F)F.O=C(CC(=O)C(F)(F)C(F)(F)C(F)(F)F)C(F)(F)F.O=C(CC(=O)C(F)(F)C(F)(F)C(F)(F)F)C(F)(F)F.[Yb]
inactive: endpoint: median survival time, dose: 50.0 mg/kg/injection, schedule: Q04DX002 (ip), vehicle: saline with Tween-80 100 % of control | endpoint: median survival time, dose: 100.0 mg/kg/injection, schedule: Q04DX002 (ip), vehicle: saline with Tween-80 100 % of control | endpoint: median survival time, dose: 200.0 mg/kg/injection, schedule: Q04DX002 (ip), vehicle: saline with Tween-80 100 % of control | endpoint: median survival time, dose: 400.0 mg/kg/injection, schedule: Q04DX002 (ip), vehicle: saline with Tween-80 100 % of control

COC(=O)C1=C(O)C(C(=O)OC)C2/C(=[N+](/[O-])O)c3c(cc([N+](=O)[O-])cc3[N+](=O)[O-])C1C2[N+](=O)[O-] (stereo not drawn)
inactive: endpoint: mean survival time, dose: 100.0 mg/kg/injection, schedule: Q04DX002 (ip), vehicle: saline with Tween-80 94 % of control | endpoint: mean survival time, dose: 200.0 mg/kg/injection, schedule: Q04DX002 (ip), vehicle: saline with Tween-80 105 % of control | endpoint: mean survival time, dose: 400.0 mg/kg/injection, schedule: Q04DX002 (ip), vehicle: saline with Tween-80 90 % of control

O=N[O-].[Co].[NH2-].[NH2-].[NH2-].[NH2-].[NH2-]
inactive: endpoint: mean survival time, dose: 12.5 mg/kg/injection, schedule: Q01DX009 (ip), vehicle: saline 103 % of control | endpoint: mean survival time, dose: 25.0 mg/kg/injection, schedule: Q01DX003 (ip), vehicle: saline 93 % of control | endpoint: mean survival time, dose: 25.0 mg/kg/injection, schedule: Q01DX009 (ip), vehicle: saline 103 % of control | endpoint: mean survival time, dose: 50.0 mg/kg/injection, schedule: Q01DX003 (ip), vehicle: saline 100 % of control | [9] 105 % of control

CCOC(=O)C(=O)Nc1onc(C)c1NC(=O)C(=O)OCC
inactive: endpoint: mean survival time, dose: 100.0 mg/kg/injection, schedule: Q04DX003 (ip), vehicle: saline with Tween-80 100 % of control | endpoint: mean survival time, dose: 200.0 mg/kg/injection, schedule: Q04DX003 (ip), vehicle: saline with Tween-80 107 % of control | endpoint: mean survival time, dose: 400.0 mg/kg/injection, schedule: Q04DX003 (ip), vehicle: saline with Tween-80 96 % of control

OCC(F)(F)C(F)(F)C(F)(F)CO
inactive: [3] 101 % of control | [5] 107 % of control | [6] 104 % of control

O=c1cc[nH]c(=O)n1C1OC(CO)C(O)C1O (stereo not drawn)
inactive: endpoint: mean survival time, dose: 100.0 mg/kg/injection, schedule: Q01DX005 (ip), vehicle: saline 104 % of control | endpoint: mean survival time, dose: 200.0 mg/kg/injection, schedule: Q01DX005 (ip), vehicle: saline 113 % of control

CCCNc1ncc(C(=O)O)c(=O)[nH]1
inactive: endpoint: mean survival time, dose: 1.56 mg/kg/injection, schedule: Q01DX009 (ip), vehicle: saline sonified 100 % of control | endpoint: mean survival time, dose: 3.1 mg/kg/injection, schedule: Q01DX009 (ip), vehicle: saline sonified 100 % of control | endpoint: mean survival time, dose: 6.25 mg/kg/injection, schedule: Q01DX009 (ip), vehicle: saline sonified 102 % of control
